Measured values published in PubChem BioAssay (NCI).
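Values below derive from 48-hour exposures of cells grown in 96-well plates, with endpoints linearly interpolated between the two concentrations bracketing the appropriate inhibition level. Here, GI50 denotes the concentration required for 50% inhibition of growth. TGI: total growth inhibition.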

Columns and labels:
Assay in all cases: growth of human tumour cells (NCI), 48 h
A498 renal = tested on: A498 renal
ACHN renal = tested on: ACHN renal
CCRF-CEM leukemia = tested on: CCRF-CEM leukemia
DU-145 prostate = tested on: DU-145 prostate
HCC-2998 colon = tested on: HCC-2998 colon
HCT-15 colon = tested on: HCT-15 colon
HL-60(TB) leukemia = tested on: HL-60(TB) leukemia
HOP-92 NSCLC = tested on: HOP-92 NSCLC
HS 578T breast = tested on: HS 578T breast
K-562 leukemia = tested on: K-562 leukemia
LOX IMVI melanoma = tested on: LOX IMVI melanoma
MDA-MB-231 breast = tested on: MDA-MB-231 breast
MDA-MB-435 = tested on: MDA-MB-435
MOLT-4 leukemia = tested on: MOLT-4 leukemia
NCI-H23 lung = tested on: NCI-H23 lung
NCI/ADR-RES ovarian = tested on: NCI/ADR-RES ovarian
OVCAR-5 ovarian = tested on: OVCAR-5 ovarian
PC-3 prostate = tested on: PC-3 prostate
RPMI-8226 leukemia = tested on: RPMI-8226 leukemia
SF-295 CNS = tested on: SF-295 CNS
SF-539 CNS = tested on: SF-539 CNS
SK-MEL-28 melanoma = tested on: SK-MEL-28 melanoma
SK-MEL-5 melanoma = tested on: SK-MEL-5 melanoma
SK-OV-3 ovarian = tested on: SK-OV-3 ovarian
SN12C renal = tested on: SN12C renal
SNB-75 CNS = tested on: SNB-75 CNS
SR leukemia = tested on: SR leukemia
SW-620 colon = tested on: SW-620 colon
UACC-257 melanoma = tested on: UACC-257 melanoma
UACC-62 melanoma = tested on: UACC-62 melanoma
UO-31 renal = tested on: UO-31 renal

IP(CCCCCCCCCCSc1n(Cc2ccc3ccccc3c2)c(-c2ccccc2)c(-c2ccccc2)[n+]1Cc1ccc2ccccc2c1)(c1ccccc1)(c1ccccc1)c1ccccc1
GI50 (A498 renal): 1.35 µM | TGI (A498 renal): 3.02 µM | GI50 (ACHN renal): 1.82 µM | TGI (ACHN renal): 3.64 µM | GI50 (CCRF-CEM leukemia): 0.489 µM | TGI (CCRF-CEM leukemia): 1.95 µM | GI50 (DU-145 prostate): 0.748 µM | TGI (DU-145 prostate): 2.19 µM | GI50 (HCC-2998 colon): 0.531 µM | TGI (HCC-2998 colon): 1.92 µM | GI50 (HCT-15 colon): 1.79 µM | TGI (HCT-15 colon): 3.42 µM | GI50 (HL-60(TB) leukemia): 0.189 µM | TGI (HL-60(TB) leukemia): 0.438 µM | GI50 (HOP-92 NSCLC): 0.24 µM | TGI (HOP-92 NSCLC): 0.932 µM | GI50 (HS 578T breast): 0.67 µM | TGI (HS 578T breast): 3.96 µM | GI50 (K-562 leukemia): 0.411 µM | TGI (K-562 leukemia): 1.84 µM | GI50 (LOX IMVI melanoma): 0.553 µM | TGI (LOX IMVI melanoma): 1.82 µM | GI50 (MDA-MB-231 breast): 0.318 µM | TGI (MDA-MB-231 breast): 1.26 µM | GI50 (MDA-MB-435): 0.403 µM | TGI (MDA-MB-435): 1.59 µM | GI50 (MOLT-4 leukemia): 0.541 µM | TGI (MOLT-4 leukemia): 2.31 µM | GI50 (NCI-H23 lung): 0.322 µM | TGI (NCI-H23 lung): 1.32 µM | GI50 (NCI/ADR-RES ovarian): 3.94 µM | TGI (NCI/ADR-RES ovarian): 23.6 µM | GI50 (OVCAR-5 ovarian): 1.5 µM | TGI (OVCAR-5 ovarian): 3 µM | GI50 (PC-3 prostate): 0.415 µM | TGI (PC-3 prostate): 1.73 µM | GI50 (RPMI-8226 leukemia): 0.337 µM | TGI (RPMI-8226 leukemia): 1.5 µM | GI50 (SF-295 CNS): 1.57 µM | TGI (SF-295 CNS): 3.1 µM | GI50 (SF-539 CNS): 0.771 µM | TGI (SF-539 CNS): 2.15 µM | GI50 (SK-MEL-28 melanoma): 0.764 µM | TGI (SK-MEL-28 melanoma): 2.14 µM | GI50 (SK-MEL-5 melanoma): 1.1 µM | TGI (SK-MEL-5 melanoma): 2.31 µM | GI50 (SK-OV-3 ovarian): 0.714 µM | TGI (SK-OV-3 ovarian): 2.17 µM | GI50 (SN12C renal): 0.399 µM | TGI (SN12C renal): 1.54 µM | GI50 (SNB-75 CNS): 0.389 µM | TGI (SNB-75 CNS): 1.89 µM | GI50 (SR leukemia): 0.347 µM | TGI (SR leukemia): 1.72 µM | GI50 (SW-620 colon): 0.794 µM | TGI (SW-620 colon): 2.16 µM | GI50 (UACC-257 melanoma): 0.412 µM | TGI (UACC-257 melanoma): 1.7 µM | GI50 (UACC-62 melanoma): 0.562 µM | TGI (UACC-62 melanoma): 2.02 µM | GI50 (UO-31 renal): 1.82 µM | TGI (UO-31 renal): 4.89 µM
